The molecules below were run against human PDE4D catalytic domain (UniProt no. Q08499) (Homo sapiens (Human), UniProt Q08499) (assay: PDE4 assay (TR-FRET, FAM-cAMP cleavage)). Settings: human PDE4D catalytic domain; molar concentration giving 50% inhibition of substrate cleavage; read-out: PDE4 IC50 range.
human PDE4D catalytic domain, sequence (Q08499 380-740 limits assumed): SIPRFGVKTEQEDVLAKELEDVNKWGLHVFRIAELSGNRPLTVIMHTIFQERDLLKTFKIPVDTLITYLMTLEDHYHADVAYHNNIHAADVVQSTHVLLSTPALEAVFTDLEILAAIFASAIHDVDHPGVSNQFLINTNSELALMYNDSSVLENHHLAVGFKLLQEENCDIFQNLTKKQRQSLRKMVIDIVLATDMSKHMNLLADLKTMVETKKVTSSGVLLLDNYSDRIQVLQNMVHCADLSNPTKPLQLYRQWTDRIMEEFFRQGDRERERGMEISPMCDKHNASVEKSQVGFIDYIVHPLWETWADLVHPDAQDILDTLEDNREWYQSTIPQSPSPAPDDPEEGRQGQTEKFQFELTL
Type: biochemical
Outline: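 PDE4D catalytic domain ([…]) was incubated with unlabelled cAMP plus FAM-cAMP and titrated compound, stopped with binding buffer of metal-ion nanoparticles and Tb donor. AMP generation read by TR-FRET; IC50 as 50% inhibition of cleavage versus controls, reported as nM ranges.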
CCc1nn(C[C@@H](C)COC(=O)c2ccc(C(F)(F)F)c(Cl)c2)c2c1C(=O)NCC1(CCOCC1)C2 [Example 234, [(2R)-3-(3-ethyl-4-oxo-spiro[6,8-dihydro-5H-pyrazolo[4,3-c]azepine-7,4′-tetrahydropyran]-1-yl)-2-methyl-propyl] 3-chloro-4-(trifluoromethyl)benzoate] was tested, and the IC50 was < 100 nM.
With CCc1nn(C[C@@H](C)COC(=O)c2ccc(C(=O)N(C)C)cc2)c2c1C(=O)NCC1(CCOCC1)C2 [Example 255, [(2R)-3-(3-ethyl-4-oxo-spiro[6,8-dihydro-5H-pyrazolo[4,3-c]azepine-7,4′-tetrahydropyran]-1-yl)-2-methyl-propyl] 4-(dimethylcarbamoyl)benzoate] the IC50 was < 100 nM.
In the case of CCc1nn(C[C@@H](C)COC(=O)c2ccc(Cl)c(C(F)(F)F)c2)c2c1C(=O)NCC1(CCOCC1)C2 [Example 238, [(2R)-3-(3-ethyl-4-oxo-spiro[6,8-dihydro-5H-pyrazolo[4,3-c]azepine-7,4′-tetrahydropyran]-1-yl)-2-methyl-propyl] 4-chloro-3-(trifluoromethyl)benzoate], the IC50 is reported as < 100 nM.
For CCc1nn(CCCOC(=O)c2cccc(F)c2C(F)(F)F)c2c1C(=O)NCC1(CCOCC1)C2 [Example 106, 3-(3-ethyl-4-oxo-spiro[6,8-dihydro-5H-pyrazolo[4,3-c]azepine-7,4′-tetrahydropyran]-1-yl)propyl 3-fluoro-2-(trifluoromethyl)benzoate], the IC50 was < 100 nM.
In the case of CCc1nn(C[C@@H](C)COC(=O)c2ccc(C(F)(F)F)cc2Cl)c2c1C(=O)NCC1(CCOCC1)C2 [Example 237, [(2R)-3-(3-ethyl-4-oxo-spiro[6,8-dihydro-5H-pyrazolo[4,3-c]azepine-7,4′-tetrahydropyran]-1-yl)-2-methyl-propyl] 2-chloro-4-(trifluoromethyl)benzoate], the IC50 is reported as < 100 nM.
In the case of CCc1nn(C[C@@H](C)COC(=O)c2ccc(C(F)F)cc2)c2c1C(=O)NCC1(CCOCC1)C2 [Example 197, [(2R)-3-(3-ethyl-4-oxo-spiro[6,8-dihydro-5H-pyrazolo[4,3-c]azepine-7,4′-tetrahydropyran]-1-yl)-2-methyl-propyl] 4-(difluoromethyl)benzoate], the IC50 is reported as < 100 nM.
CCc1nn(CCCOC(=O)c2cccc(Cl)c2F)c2c1C(=O)NCC1(CCOCC1)C2 [Example 78, 3-(3-ethyl-4-oxo-spiro[6,8-dihydro-5H-pyrazolo[4,3-c]azepine-7,4′-tetrahydropyran]-1-yl)propyl 3-chloro-2-fluoro-benzoate] was tested, and the IC50 was < 100 nM.

Same assay, conditions: read-out: PDE4 IC50 range
With CCc1nn(CC(C)(C)COC(=O)c2cccc(C(=O)NC)c2)c2c1C(=O)NCC1(CCOCC1)C2 [Example 340, [3-(3-ethyl-4-oxo-spiro[6,8-dihydro-5H-pyrazolo[4,3-c]azepine-7,4′-tetrahydropyran]-1-yl)-2,2-dimethyl-propyl] 3-(methylcarbamoyl)-benzoate] the IC50 was < 100 nM.
CCc1nn(CC(C)(C)COC(=O)c2ccc(S(=O)(=O)N3CCOCC3)cc2)c2c1C(=O)NCC1(CCOCC1)C2 [Example 322, [3-(3-ethyl-4-oxo-spiro[6,8-dihydro-5H-pyrazolo[4,3-c]azepine-7,4′-tetrahydropyran]-1-yl)-2,2-dimethyl-propyl] 4-morpholinosulfonylbenzoate] was tested, and the IC50 was < 100 nM.
For CCc1nn(CC(C)(C)COC(=O)c2cccc(S(=O)(=O)CC)c2)c2c1C(=O)NCC1(CCOCC1)C2 [Example 311, [3-(3-ethyl-4-oxo-spiro[6,8-dihydro-5H-pyrazolo[4,3-c]azepine-7,4′-tetrahydropyran]-1-yl)-2,2-dimethyl-propyl] 3-ethylsulfonylbenzoate], the IC50 was < 100 nM.
CCc1nn(C[C@@H](C)COC(=O)c2cccc(C(=O)N3CCCC3)c2)c2c1C(=O)NCC1(CCOCC1)C2 [Example 268, [(2R)-3-(3-ethyl-4-oxo-spiro[6,8-dihydro-5H-pyrazolo[4,3-c]azepine-7,4′-tetrahydropyran]-1-yl)-2-methyl-propyl] 3-(pyrrolidine-1-carbonyl)benzoate] was tested, and the IC50 was < 100 nM.
